Test results from patent US10767187B2 (The State of Israel, Ministry of Agriculture & Rural …, priority 2016, dated 2020).

How the values were obtained:
MdPh-4′-OGT [1] = molecular target: T1, MdPh-4′-OGT (Malus domestica, UniProt A7MAS5); assay: Substrate specificity, sugar donor and cation dependence of purified recombinant MdPh-4′-OGT; assay type: biochemical, Malus x domestica; settings: 50 μM substrate, 2 mM UDP-glucose, 500 ng enzyme, 1 hour, pH 7.5; LC-MS
T1 construct: made in house; host or cells: E. coli BL21 (DE3)
T1 sequence (A7MAS5 1-481): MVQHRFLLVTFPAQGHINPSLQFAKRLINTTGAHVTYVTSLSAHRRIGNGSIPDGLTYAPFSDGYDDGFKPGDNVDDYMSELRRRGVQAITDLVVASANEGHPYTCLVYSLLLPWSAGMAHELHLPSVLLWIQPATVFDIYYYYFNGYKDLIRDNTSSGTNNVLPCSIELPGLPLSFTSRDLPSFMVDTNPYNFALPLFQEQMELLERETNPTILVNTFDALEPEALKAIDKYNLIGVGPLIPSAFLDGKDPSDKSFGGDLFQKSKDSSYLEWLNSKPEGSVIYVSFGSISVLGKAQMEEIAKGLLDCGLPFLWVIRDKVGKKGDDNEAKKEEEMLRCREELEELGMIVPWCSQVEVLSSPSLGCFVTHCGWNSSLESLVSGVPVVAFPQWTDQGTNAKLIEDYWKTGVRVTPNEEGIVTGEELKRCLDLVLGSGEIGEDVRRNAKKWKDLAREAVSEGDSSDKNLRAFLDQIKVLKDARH
Method: Substrates analyzed are indicated.
(§1) Reactions were performed at 30° C. for 60 minutes and terminated by addition of 10 μL of 10% TCA (v/v). Two microliters of the reaction products were used for analysis and identification by LC-UV-MS. All assay series were carried out at least in triplicate.
The analytical column was a Zorbax Extend-C18 Rapid Resolution HT column (2.1×50.0 mm, 1.8 μm, Agilent Technologies, Waldbronn, Germany). The gradient elution mobile phase consisted of H2O with 0.1% (v/v) formic acid (eluent A) and acetonitrile containing 0.1% (v/v) formic acid (eluent B). The column was equilibrated with 10% B for 1.5 minutes. […] The flow rate of the mobile phase was 0.3 ml/min and the column oven temperature was 40° C. Eluting compounds were subjected to a dual-sprayer orthogonal ESI source, with one sprayer for analytical flow and one for the reference compound (Agilent Technologies, Santa Clara, USA). The ESI source was operated in negative mode with the following settings: gas temp of 300° C. with a flow of 8 L/min and nebulizer set to 35 psig. VCap set to 3000 V, the fragmentor to −140 V and the skimmer to 65 V. Scan mode of the mass detector was applied (100-1700 m/z) with a rate of 1 spectra/sec. The [M-H] ions of target compounds were detected using the ‘find compound by formula’ function and analyzed by Masshunter qualitative and quantitative analysis software version B.07.00 (Agilent technologies). Compounds were identified by comparison of exact mass and retention time to purchased standards.

MdPGT1 = MdPGT1 (Malus domestica, UniProt B3TKC8); settings: Jugde et al. (2008)
Malus Ph-2′-OGT = assay: Km for phloretin of Malus Ph-2′-OGT (literature) compared with MdPh-4′-OGT; assay type: biochemical; settings: Gosch C. et al. (2010)
MdPh-4′-OGT [2] = molecular target: T1, MdPh-4′-OGT; assay: Kinetic parameters of His-tag purified recombinant MdPh-4′-OGT (standard glucosyltransferase enzyme assay, LC-MS); assay type: biochemical, Malus x domestica
Method: as §1
The UPLC-MS analysis was carried out on an Agilent 1290 Infinity series liquid chromatograph coupled with an Agilent 1290 Infinity DAD and Agilent 6224 Accurate Mass Time of Flight mass spectrometer (MS) (Agilent Technologies, Santa Clara, USA). The analytical column was a Zorbax Extend-C18 Rapid Resolution HT column (2.1×50.0 mm, 1.8 μm, Agilent Technologies, Waldbronn, Germany). The gradient elution mobile phase consisted of H2O with 0.1% (v/v) formic acid (eluent A) and acetonitrile containing 0.1% (v/v) formic acid (eluent B). The column was equilibrated with 10% B for 1.5 minutes. Eluent B was then increased to 95% till 12 minutes, and restored to 10% by 15 minutes. The flow rate of the mobile phase was 0.3 ml/min and the column oven temperature was 40° C. Eluting compounds were subjected to a dual-sprayer orthogonal ESI source, with one sprayer for analytical flow and one for the reference compound (Agilent Technologies, Santa Clara, USA). The ESI source was operated in negative mode with the following settings: gas temp of 300° C. with a flow of 8 L/min and nebulizer set to 35 psig. VCap set to 3000 V, the fragmentor to −140 V and the skimmer to 65 V. Scan mode of the mass detector was applied (100-1700 m/z) with a rate of 1 spectra/sec. The [M-H] ions of target compounds were detected using the ‘find compound by formula’ function and analyzed by Masshunter qualitative and quantitative analysis software version B.07.00 (Agilent technologies). Compounds were identified by comparison of exact mass and retention time to purchased standards.

MdPh-4′-OGT [3] = molecular target: T1, MdPh-4′-OGT; assay: pH and temperature optima of MdPh-4′-OGT activity with phloretin and UDP-glucose; assay type: biochemical, Malus x domestica
Method: as §1
All data included represent an average of at least three independent experiments. Determination of the pH optima within the range of 4.0-10.0 by mixing the stock buffer of 0.5 M citric acid and 1 M dibasic sodium phosphate solutions (for pH 4.0-7.0) and Tris-HCl (for pH 8.0-10.0), and the temperature optima within the range of 20° C.-45° C.

## O=C(O)/C=C/c1ccc(O)cc1 [4-coumaric acid]
MdPh-4′-OGT [1]
  Activity / product formation with the compound as acceptor substrate: no products were detected

## O=C(CCc1ccc(O)cc1)c1c(O)cc(O)cc1O [Phloretin, 3-(4-hydroxyphenyl)-1-(2,4,6-trihydroxyphenyl)-1-propanone]
MdPGT1
  Km for phloretin, times lower than with MdPh-4′-OGT: 41 times
MdPh-4′-OGT [1]
  Activity / product formation with the compound as acceptor substrate: highest activity
Malus Ph-2′-OGT
  Km for phloretin, times higher than with MdPh-4′-OGT: 3 times
MdPh-4′-OGT [2]; named substrate varied, co-substrate fixed
  kcat: 9.94 ± 1.23 s^−1 (×10^−2)
MdPh-4′-OGT [2]; named substrate varied, co-substrate fixed, 500 ng enzyme
  Vmax: 1.86 ± 0.30 pkat μg^−1 protein
MdPh-4′-OGT [2]; named substrate varied, co-substrate fixed, 500 ng enzyme, listed as phloretin
  Vmax: 1.86±0.30 pkat μg^−1 protein
MdPh-4′-OGT [2]; named substrate varied: phloretin 0.5-500 μM at 2 mM UDP-glucose, UDP-glucose 0.01-50 mM at 30 μM phloretin, 500 ng enzyme
  Km: 26.1 ± 6.97 µM

## O=C(/C=C/c1ccc(O)c(O)c1)c1ccc(O)cc1O [butein]
MdPh-4′-OGT [1]
  Activity / product formation with the compound as acceptor substrate: production of the corresponding O-glucoside

## O=C(O)/C=C/c1ccc(O)c(O)c1 [caffeic acid]
MdPh-4′-OGT [1]
  Activity / product formation with the compound as acceptor substrate: no products were detected

## O=C1C[C@@H](c2ccc(O)cc2)Oc2cc(O)cc(O)c21 [naringenin]
MdPh-4′-OGT [1]
  Activity / product formation with the compound as acceptor substrate: formation of the corresponding naringenin-7-O-glucoside

## O=c1c(O)c(-c2ccc(O)c(O)c2)oc2cc(O)cc(O)c12 [quercetin]
MdPh-4′-OGT [1]
  Activity / product formation with the compound as acceptor substrate: production of three different products

## O=C(CCc1ccc(O)cc1)c1c(O)cc(O[C@@H]2O[C@H](CO)[C@@H](O)[C@H](O)[C@H]2O)cc1O [trilobatin, 1-Propanone, 1-(4-(beta-D-glucopyranosyloxy)-2,6-dihydroxyphenyl)-3-(4-hydroxyphenyl)]
MdPh-4′-OGT [1]
  Activity / product formation with the compound as acceptor substrate: production of the corresponding di-O-glucosides

B1: MdPh-4′-OGT: His-tagged recombinant apple glycosyltransferase that glycosylates phloretin with UDP-glucose to form trilobatin (protein, listed as Malus domestica)
chain: T1 sequence (A7MAS5 1-481)
modifications: His tag
notes: His-tagged recombinant apple glycosyltransferase that glycosylates phloretin with UDP-glucose to form trilobatin
MdPh-4′-OGT [3]; calculated from temperature dependence
  Activation energy: 4.369 kcal/mol
MdPh-4′-OGT [3]; pH 6.0
  Activity remaining at pH 6.0: 17%
MdPh-4′-OGT [3]; pH 10.0
  Activity remaining at pH 10.0: less than 5%
MdPh-4′-OGT [3]; pH range 4.0-10.0 tested
  pH of maximum activity: 9.0 pH
  pH range of significant activity: 7.0-9.0 pH
